The subject of one data set is Apis mellifera. Conditions: acute, duration: 48 hours, mortality.
The next data set concerns Coturnix japonica. Conditions: acute; oral; mortality.
The next data set relates to Colinus virginianus. Conditions: chronic.
A further data set deals with Pimephales promelas. The conditions noted are these: chronic/long-term; duration: 28 days; growth.
Another data set has as its system Tagia sp. Conditions: for LC50: acute, duration: 14 days, mortality; for NOEC: chronic/long-term, duration: 56 days, growth.
For the next data set, the system named is Folsomia candida. Conditions: chronic/long-term; duration: 28 days; mortality.
The subject of the next data set is Lepomis macrochirus. Conditions: acute; duration: 96 hours; mortality.
A further data set has as its system Oryctolagus sp. Conditions: reproduction developmental; body weight.
In the next data set the test system is Daphnia magna. Conditions: chronic/long-term; duration: 21 days.
A further data set deals with Canidae. The conditions noted are these: Dog Other, clinical chemistry.
The next data set concerns Typhlodromus pyri. Description: LR50; higher = less toxic. The conditions noted are these: not reported; no effects.
The subject of the next data set is Oncorhynchus mykiss. Conditions: acute; duration: 96 hours; mortality.
In the next data set the test system is Hypoaspis aculeifer. Conditions: chronic/long-term; duration: 14 days; mortality.

In brackets after ≈: the same amount, converted by molar mass. Some results are limits rather than exact numbers.

In general, NOAEL refers to the highest tested level that showed no adverse finding. Regarding `C=CCNC(=O)c1c([Si](C)(C)C)sc(C)c1C` [Silthiofam], the LD50 with Apis mellifera (dermal) was over 100 µg/piece; in the data set with Apis mellifera (oral, unspecified), over 106 µg/piece; in the data set on Coturnix japonica it was over 2250 mg/kg-day; in the data set on Rattus norvegicus (acute, oral, mortality), over 5000 mg/kg. Moreover, the NOEL with Colinus virginianus came to 250 mg/kg-day; in the data set on Rattus norvegicus (reproduction developmental, body weight), 23.5 mg/kg-day. For the same molecule, the NOEC came to 0.89 mg/L in the data set with Pimephales promelas, 30 mg/kg with Tagia sp., 1.33 mg/kg with Folsomia candida and 0.47 mg/L with Daphnia magna. Moreover, the LC50 in the data set with Tagia sp. amounted to 66.5 mg/kg; in the data set on Lepomis macrochirus it was 11 µg/mL (≈ 41.1 µM). The NOAEL in the data set with Oryctolagus sp. is 20 mg/kg-day; with Canidae (chronic, duration: 1 years, oral), 10 mg/kg-day; in the data set with Canidae (subchronic, duration: 90 days), 10 mg/kg-day; in the data set with Rattus norvegicus (chronic, duration: 2 years, M, histopathology: neoplastic), 5 mg/kg-day. In the data set with Typhlodromus pyri, this molecule gave an LR50 of over 40 g/ha.
Take `Cc1c(C(=O)O)sc([Si](C)(C)C)c1C(N)=O` [Silthiofam amide acid]: the LC50 in the data set on Oncorhynchus mykiss was over 110 µg/mL; with Tagia sp. it was over 460 mg/kg. Also, the NOEC in the data set on Tagia sp., with Folsomia candida and with Hypoaspis aculeifer was 0.194 mg/kg in each case.
For `C=CCNC(=O)c1c([Si](C)(C)C)sc(C(=O)O)c1C` [Silthiofam allyl acid], the LC50 was over 113 µg/mL with Oncorhynchus mykiss and over 466 mg/kg in the data set on Tagia sp.. Also, the NOEC in the data set on Tagia sp., in the data set on Folsomia candida and in the data set with Hypoaspis aculeifer was 0.207 mg/kg throughout.

(Values after EPA's ToxValDB 9.5 (doi:10.2903/j.efsa.2016.4574).)
